The record followed here is US20260364214A1, “MULTIVALENT FIBROBLAST ACTIVATION PROTEIN LIGANDS FOR TARGETED DELIVERY APPLICATIONS” (Philochem AG, priority 2022, published 2026).

The test system of the assay is SK-RC-52.hFAP tumors. Put plainly: Therapeutic efficacy in SK-RC-52.hFAP tumor bearing mice. The format is in vivo, mouse (athymic Balb/c AnNRj-Foxn1). The note with it: single administration, 250 nmol/kg, 250 MBq/kg. Here is the method:
SK-RC-52.hFAP were grown to 80% confluence in RPMI-1640 with 10% fetal bovine serum (FBS) and 1% antibiotic-antimycotic and detached with Trypsin-EDTA (ethylenediaminetetraacetic acid) 0.05%. Tumor cells were resuspended in Hanks' Balanced Salt Solution medium. Aliquots of 5 million cells (100 μL of suspension) were injected subcutaneously in the right flank of female athymic Balb/c AnNRj-Foxn1 mice (6 to 8 wk of age).
Prior to the therapy studies, precursors (25 nmol) were dissolved in 25 μL of milliQ water, then sodium acetate buffer (75 μL, 1 M in water) and 25, 75 or 150 MBq of ^177Lu solution were added. The mixture was heated at 90 °C for 1 minutes followed by dilution with 400 μL of PBS to afford a final volume of 500 μL (5 doses of 100 μL each). […]
The anti-cancer efficacy of ^177Lu-ESV6, ^177Lu-Bi-ESV6 and ^177Lu-Tri-ESV6 was assessed in athymic Balb/c AnNRj-Foxn1 mice bearing SK-RC-52.hFAP tumor in the right flank. ^177Lu-ESV6, ^177Lu-Bi-ESV6 or ^177Lu-Tri-ESV6 were intravenously administered at a dose of 250 nmol/kg, 250 MBq/kg (single administration on day 9 after tumor implantation). […] Body weight of the animals and tumor volume were daily measured and recorded. Tumor dimensions were measured with an electronic caliper and tumor volume was calculated with the formula (long side, mm)×(short side, mm)×(short side, mm)×0.5. […]

Turning to `N#C[C@@H]1CC(F)(F)CN1C(=O)CNC(=O)c1ccnc2c(NC(=O)CCC(=O)NCCNC(=O)CCOCC(COCCC(=O)NCCNC(=O)CCC(=O)Nc3cccc4c(C(=O)NCC(=O)N5CC(F)(F)C[C@H]5C#N)ccnc34)(COCCC(=O)NCCNC(=O)CCC(=O)Nc3cccc4c(C(=O)NCC(=O)N5CC(F)(F)C[C@H]5C#N)ccnc34)NC(=O)CCC(C(=O)O)N3CCN(CC(=O)O)CCN(CC(=O)O)CCN(CC(=O)O)CC3)cccc12` (stereo partly drawn) [Tri-ESV6-DOTAGA, 2,2′,2″-(10-(19-carboxy-1-((4-((2-((S)-2-cyano-4,4-difluoropyrrolidin-1-yl)-2-oxoethyl)carbamoyl)quinolin-8-yl)amino)-14,14-bis((3-((2-(4-((4-((2-((S)-2-cyano-4,4-difluoropyrrolidin-1-yl)-2-oxoethyl)carbamoyl)quinolin-8-yl)amino)-4-oxobutanamido)ethyl)amino)-3-oxopropoxy)methyl)-1,4,9,16-tetraoxo-12-oxa-5,8,15-triazanonadecan-19-yl)-1,4,7,10-tetraazacyclododecane-1,4,7-triyl)triacetic acid], the “therapeutic activity (tumor volume), in words” value is “remarkable therapeutic activity”.
